In PMC12499404, “Colloidal Interactions in Simulated Intestinal Fluids: Implications for Oral Drug Delivery at the Nanoscale” (Small Science, 2025):
Values after ≈ are worked out from the molar mass of the structure shown.

Assays:
physchem = format: physicochemical; conditions: 37 °C, pH 6.5, fassif, thermodynamic from solid, apparent solubility
Protocol: Excess powder (at least 2‐3 times the expected equilibrium solubility) was added to 10 mL preheated simulated intestinal fluids, and the dissolution was monitored until a plateau was reached. […] This is in line with previously reported observations.^[ [26], [27] ^] […] This is likely because of the neutral and more lipophilic properties of felodipine (Table 1), where it is expected to see a larger benefit of the solubilization properties of the formed micelles.
The dissolution and apparent solubilities of two poorly water‐soluble drugs, indomethacin and felodipine, were determined in the simulated intestinal fluids using a MicroDISS Profiler (pION Inc Ltd, East Sussex, UK). In each experiment (n ≥ 3), excess powder (at least 2‐3 times) compared to the expected solubility value was added to 10 mL simulated intestinal fluid. The experiments were performed at 37 °C using a stirring rate of 150 rpm, while the samples were scanned by individual UV probes every 10–30 s. […] The concentrations were determined based on the area under the curve in second derivative spectra evaluated over a range of wavelengths. […] The hydrodynamic size of the simulated intestinal fluids and drugs dissolved in the different simulated intestinal fluids was determined using a Malvern Zetasizer Nano ZSP (Malvern Instruments, Worcestershire, UK) with single‐use disposable microcuvettes. […]

[1] = parameters: method as in PMID 20507160; conditions: cited from earlier work
[2] = cited from earlier work

CCOC(=O)C1=C(C)NC(C)=C(C(=O)OC)C1c1cccc(Cl)c1Cl (stereo not drawn) [Felodipine, felodipine]
solubility (physchem): 49.3 ± 1.9 µg/mL (≈ 128 µM) | LogP [1]: 5.58 | Charge (pH 6.5) [1]: 0

COc1ccc2c(c1)c(CC(=O)O)c(C)n2C(=O)c1ccc(Cl)cc1 [Indomethacin, indomethacin]
LogP [1]: 3.51 | Charge (pH 6.5) [1]: −1

C[C@H](CCC(=O)NCCS(=O)(=O)O)[C@H]1CC[C@H]2[C@@H]3[C@H](O)C[C@@H]4C[C@H](O)CC[C@]4(C)[C@H]3C[C@H](O)[C@]12C [Taurocholic acid, taurocholic acid]
CMC [2]: 3 to 8 mM
